According to PMC5565203 (Journal of medicinal chemistry, 2015):
“Also recorded” adds a separate entry of the source.

What was measured:
human Mcl-1 = human Mcl-1 (Homo sapiens, UniProt Q07820); experiment: FPA competition assay, displacement of FITC-Bak-BH3 peptide from Mcl-1; type: binding; conditions: for LE (ligand efficiency): binding to Mcl-1; for higher Mcl-1 Ki values compared to the corresponding four-atom linker analogs: three-atom linker compounds; for increased affinity for Mcl-1 compared to the initial fragment 2: four-atom linker compounds; for improvement in Mcl-1 affinity compared to the core fragment 3: compared to fragment 3
cellular Mcl-1 = cellular Mcl-1 (Homo sapiens, UniProt Q07820); experiment: Biotin streptavidin pull-down experiment in K562 cell lysates; type: binding; conditions: Western blot
cellular Mcl-1, sequence (Q07820 whole entry): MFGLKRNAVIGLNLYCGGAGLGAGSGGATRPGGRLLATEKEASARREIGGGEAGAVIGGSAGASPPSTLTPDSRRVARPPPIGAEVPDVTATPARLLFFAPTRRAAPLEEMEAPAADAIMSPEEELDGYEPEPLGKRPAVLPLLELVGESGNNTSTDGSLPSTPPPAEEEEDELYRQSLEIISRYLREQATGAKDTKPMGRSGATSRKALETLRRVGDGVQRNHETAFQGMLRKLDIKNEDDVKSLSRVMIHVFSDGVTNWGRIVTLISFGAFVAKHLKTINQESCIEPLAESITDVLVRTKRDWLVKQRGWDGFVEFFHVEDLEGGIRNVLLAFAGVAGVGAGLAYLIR

human Mcl-1, sequence (Q07820 172-327): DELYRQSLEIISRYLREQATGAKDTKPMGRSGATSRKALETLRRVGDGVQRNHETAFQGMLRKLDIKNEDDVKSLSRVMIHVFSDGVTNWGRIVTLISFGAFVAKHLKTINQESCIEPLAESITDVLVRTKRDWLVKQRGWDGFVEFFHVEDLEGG

## CC1Cn2c(C(=O)O)cc3cccc(c32)S1 (stereo not shown) [Compound 2]
Human Mcl-1
  LE (ligand efficiency): 0.38

## O=C(O)c1cc2cccc3c2n1CCS3 [Compound 3]
Human Mcl-1
  LE (ligand efficiency): 0.39

## O=C(O)c1cc2cccc3c2n1CCC3 [Compound 4]
Human Mcl-1
  LE (ligand efficiency): 0.35

## Cc1c(C(=O)O)n2c3c(cccc13)SCC2 [Compound 5, 6-Methyl-2,3-dihydro-[1,4]thiazino[2,3,4-hi]indole-5-carboxylic acid]
Human Mcl-1
  LE (ligand efficiency): 0.41

## Cc1c(C(=O)O)n2c3c(cccc13)CCC2 [Compound 6, 1-Methyl-5,6-dihydro-4H-pyrrolo[3,2,1-ij]quinoline-2-carboxylic acid]
Human Mcl-1
  LE (ligand efficiency): 0.35

## Cc1c(C(=O)O)n2c3c(cccc13)OCC2 [Compound 7, 6-Methyl-2,3-dihydro-[1,4]oxazino[2,3,4-hi]indole-5-carboxylic acid]
Human Mcl-1
  LE (ligand efficiency): 0.41

## O=C(O)c1c(CCOc2cccc3ccccc23)c2cccc3c2n1CCS3 [Compound 16, 6-(2-(Naphthalen-1-yloxy)ethyl)-2,3-dihydro-[1,4]thiazino[2,3,4-hi]indole-5-carboxylic acid]
Human Mcl-1
  higher Mcl-1 Ki values compared to the corresponding four-atom linker analogs: > 10 fold

## O=C(O)c1c(CCOc2cccc3ccccc23)c2cccc3c2n1CCC3 [Compound 17, 1-(2-(Naphthalen-1-yloxy)ethyl)-5,6-dihydro-4H-pyrrolo[3,2,1-ij]quinoline-2-carboxylic acid]
Human Mcl-1
  higher Mcl-1 Ki values compared to the corresponding four-atom linker analogs: > 10 fold

## O=C(O)c1c(CCOc2cccc3ccccc23)c2cccc3c2n1CCO3 [Compound 18, 6-(2-(Naphthalen-1-yloxy)ethyl)-2,3-dihydro-[1,4]oxazino[2,3,4-hi]indole-5-carboxylic acid]
Human Mcl-1
  higher Mcl-1 Ki values compared to the corresponding four-atom linker analogs: > 10 fold

## O=C(O)c1c(CCCOc2cccc3ccccc23)c2cccc3c2n1CCS3 [Compound 19, 6-(3-(Naphthalen-1-yloxy)propyl)-2,3-dihydro-[1,4]thiazino[2,3,4-hi]indole-5-carboxylic acid]
Human Mcl-1
  increased affinity for Mcl-1 compared to the initial fragment 2: more than 2 orders of magnitude

## O=C(O)c1c(CCCOc2cccc3ccccc23)c2cccc3c2n1CCC3 [Compound 20, 1-(3-(Naphthalen-1-yloxy)propyl)-5,6-dihydro-4H-pyrrolo[3,2,1-ij]quinoline-2-carboxylic acid]
Human Mcl-1
  increased affinity for Mcl-1 compared to the initial fragment 2: more than 2 orders of magnitude

## O=C(O)c1c(CCCOc2cccc3ccccc23)c2cccc3c2n1CCO3 [Compound 21, 6-(3-(Naphthalen-1-yloxy)propyl)-2,3-dihydro-[1,4]oxazino[2,3,4-hi]indole-5-carboxylic acid]
Human Mcl-1
  increased affinity for Mcl-1 compared to the initial fragment 2: more than 2 orders of magnitude

## O=C(O)c1c(CCCOc2ccc3c(c2)CCCC3)c2cccc3c2n1CCS3 [Compound 28, 6-(3-((5,6,7,8-Tetrahydronaphthalen-2-yl)oxy)propyl)-2,3-dihydro-[1,4]thiazino[2,3,4-hi]indole-5-carboxylic acid]
Human Mcl-1; compared to regioisomer 26 and 1-naphthyl analog 19
  reduction in affinity to Mcl-1: 3 fold

## Cc1cc(OCCCc2c(C(=O)O)n3c4c(cccc24)SCC3)ccc1Cl [Compound 29, 6-(3-(4-Chloro-3-methylphenoxy)propyl)-2,3-dihydro-[1,4]thiazino[2,3,4-hi]indole-5-carboxylic acid]
Human Mcl-1
  improvement in Mcl-1 affinity compared to the core fragment 3: 240 fold

## Cc1cc(OCCCc2c(C(=O)O)n3c4c(cccc24)SCC3)cc(C)c1Cl [Compound 30, 6-(3-(4-chloro-3,5-dimethylphenoxy)propyl)-2,3-dihydro-[1,4]thiazino[2,3,4-hi]indole-5-carboxylic acid]
Human Mcl-1
  improvement in Mcl-1 affinity compared to the core fragment 3: 720 fold

## Cc1cc(OCCCc2c(C(=O)O)n3c4c(c(Cl)ccc24)CCC3)cc(C)c1Cl [Compound 34, 7-chloro-1-(3-(4-chloro-3,5-dimethylphenoxy)propyl)-5,6-dihydro-4H-pyrrolo[3,2,1-ij]quinoline-2-carboxylic acid]
Cellular Mcl-1
  inhibition of biotin-MS-1 pulldown of cellular Mcl-1: blocks the interaction with biotin MS-1 in a dose-dependent manner; also recorded: inhibits binding of biotin-MS-1 to Mcl-1 in cell lysates
